PMC10020421 (Pharmacology, biochemistry, and behavior, 2023)
Where two headings read alike, the source gives them in different places.

What was measured:
myc-h5HT1a and 3HA-hCB1 [1] = format: cell-based, human; details: 5HT1a/CB1 cell line
3HA-hCB1 = 3HA-hCB1 (Homo sapiens, UniProt P21554); assay: CAMYEL BRET cAMP signalling assay, HEK cells expressing CB1 alone; format: cell-based; details: for cAMP response in the cell line expressing only CB1: CB1-alone HEK line, 5 μM forskolin; for Emax (% inhib of Fsk), ± SEM / pEC50 ± SEM: CB1 cell line
C57BL/6 mice = assay: THC drug discrimination in mice; format: in vivo, mouse; details: for Effect on response rates compared to vehicle: alone or in combination with 3 mg/kg pFPP, either sex; for AMB-FUBINACA ED50 (95% confidence limits), + Saline: with saline
Long Evans rats = assay: Plethysmography and telemetry in rats
5HT1a = details: ref Scherman et al., 1988; cited from earlier work
[2] = AMB-FUBINACA metabolism in rat liver microsomes; format: in vitro ADME; details: pFPP 0.59, 1.18, 2.36 μg/ml
myc-h5HT1a and 3HA-hCB1 [3] = target: T1, myc-h5HT1a and 3HA-hCB1 (Homo sapiens, UniProt P08908); format: cell-based; details: 5HT1a/CB1 cell line, in the presence of 31.6 nM 8OH-DPAT
T1 sequence (P08908 1-422): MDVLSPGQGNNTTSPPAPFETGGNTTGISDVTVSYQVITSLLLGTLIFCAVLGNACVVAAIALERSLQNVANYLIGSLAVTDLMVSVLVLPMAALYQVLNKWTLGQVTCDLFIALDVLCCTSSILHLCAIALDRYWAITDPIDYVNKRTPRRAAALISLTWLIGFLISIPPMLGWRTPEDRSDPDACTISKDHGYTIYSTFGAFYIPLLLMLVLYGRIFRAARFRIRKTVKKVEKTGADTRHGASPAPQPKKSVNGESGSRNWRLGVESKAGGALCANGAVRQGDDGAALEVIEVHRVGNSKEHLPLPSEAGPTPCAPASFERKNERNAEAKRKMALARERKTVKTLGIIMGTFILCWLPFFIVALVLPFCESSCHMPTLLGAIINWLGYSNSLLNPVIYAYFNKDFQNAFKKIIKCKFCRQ

[4] = AMB-FUBINACA metabolism in human liver microsomes; format: in vitro ADME; details: pFPP 0.59, 1.18, 2.36 μg/ml
myc-h5HT1a = target: T2, myc-h5HT1a (Homo sapiens, UniProt P08908); assay: CAMYEL BRET cAMP signalling assay, HEK cells expressing 5HT1a alone; format: cell-based; details: 5HT1a-alone cell line, in the presence of 31.6 nM 8OH-DPAT
T2 sequence (P08908 1-422): T1 sequence (P08908 1-422)

[5] = inhibition of 5 μM forskolin-induced cAMP, drug alone

Sequence of 3HA-hCB1 (P21554 whole entry): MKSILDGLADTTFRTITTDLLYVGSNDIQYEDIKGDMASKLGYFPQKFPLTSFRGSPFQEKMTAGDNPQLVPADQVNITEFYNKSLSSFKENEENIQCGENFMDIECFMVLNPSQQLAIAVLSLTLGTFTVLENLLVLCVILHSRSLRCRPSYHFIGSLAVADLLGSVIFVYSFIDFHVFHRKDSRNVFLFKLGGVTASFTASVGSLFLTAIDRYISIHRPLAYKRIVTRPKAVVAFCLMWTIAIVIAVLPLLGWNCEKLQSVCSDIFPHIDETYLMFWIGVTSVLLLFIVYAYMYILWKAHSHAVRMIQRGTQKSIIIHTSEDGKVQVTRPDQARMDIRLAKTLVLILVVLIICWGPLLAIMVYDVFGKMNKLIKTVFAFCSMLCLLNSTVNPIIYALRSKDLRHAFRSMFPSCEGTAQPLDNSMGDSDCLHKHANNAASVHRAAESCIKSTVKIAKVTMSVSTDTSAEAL

## CCCN(CCC)C1CCc2cccc(O)c2C1 (centres unmarked) [8OH-DPAT, 8-hydroxy DPAT]
myc-h5HT1a and 3HA-hCB1 [1]; drug alone
  Emax (% inhib of Fsk), ± SEM: 66.6 ± 1.3 % inhib of Fsk
myc-h5HT1a and 3HA-hCB1 [1]; [5]
  pEC50 ± SEM: 8.39 ± 0.21
3HA-hCB1
  cAMP response in the cell line expressing only CB1: without showing activity

## COC(=O)[C@@H](NC(=O)c1nn(Cc2ccc(F)cc2)c2ccccc12)C(C)C [AMB-FUBINACA]
C57BL/6 mice
  Effect on response rates compared to vehicle: neither cannabinoid (alone or in combination with pFPP) significantly affected response rates
C57BL/6 mice; both sexes, more potent than THC
  Potency relative to THC in drug discrimination: 49-70 fold
C57BL/6 mice; female mice, i.p.
  AMB-FUBINACA ED50 (95% confidence limits), + Saline: 0.03 mg/kg (0.006-0.14)
C57BL/6 mice; male mice, i.p.
  AMB-FUBINACA ED50 (95% confidence limits), + Saline: 0.03 mg/kg (0.007-0.14)
Long Evans rats; 0.3 mg/kg AMB-FUBINACA alone
  Duration of decreases in heart rate: approximately half of the post-injection session
Long Evans rats; 0.3 mg/kg AMB-FUBINACA alone, early in the session
  Effect on respiratory minute volume: transient decrease
Long Evans rats; 0.3 mg/kg AMB-FUBINACA combined with 10 mg/kg pFPP
  Time until which significant hypothermia continued: 165 min
Long Evans rats; 0.3 mg/kg AMB-FUBINACA i.p. alone
  Time after injection by which hypothermic effect dissipated: ≤ 135 min
Long Evans rats; 1 mg/kg AMB-FUBINACA alone
  Duration of significant decreases in heart rate: during most of the post-injection session
Long Evans rats; 1 mg/kg AMB-FUBINACA alone and with 10 mg/kg pFPP, part or all of the post-injection session
  Effect on respiratory minute volume: significantly decreased minute volume
Long Evans rats; 1 mg/kg AMB-FUBINACA combined with 10 mg/kg pFPP
  Duration of significant hypothermia: throughout the session
Long Evans rats; 1 mg/kg AMB-FUBINACA i.p. alone
  Duration of hypothermic effect: endured for the entire 240-min post-injection measurement period
Long Evans rats; 0.03 and 0.1 mg/kg AMB-FUBINACA i.p.
  Effect on temperature: no significant effect
Long Evans rats; 0.3 and 1 mg/kg AMB-FUBINACA combined with 10 mg/kg pFPP, vs pFPP alone
  Onset of significant hypothermic effect post-injection: 75 min
Long Evans rats; 0.3 and 1 mg/kg AMB-FUBINACA i.p. alone, one or more post-injection time points
  Effect on temperature vs vehicle/saline: produced hypothermia
Long Evans rats; 0.3 and 1 mg/kg AMB-FUBINACA i.p., alone or with 10 mg/kg pFPP
  Effect on heart rate: decreased heart rate
myc-h5HT1a and 3HA-hCB1 [1]; + WAY100635 (1 μM)
  Emax (% inhib of Fsk), ± SEM: 59.4 ± 9.17 % inhib of Fsk
  pEC50 ± SEM: 9.11 ± 0.16
myc-h5HT1a and 3HA-hCB1 [1]; + pFPP (31.6 μM)
  Emax (% inhib of Fsk), ± SEM: 64.9 ± 3.5 % inhib of Fsk
  pEC50 ± SEM: 9.39 ± 0.11
myc-h5HT1a and 3HA-hCB1 [1]; drug alone
  Emax (% inhib of Fsk), ± SEM: 61.0 ± 1.7 % inhib of Fsk
myc-h5HT1a and 3HA-hCB1 [1]; [5]
  pEC50 ± SEM: 9.21 ± 0.14
3HA-hCB1; + WAY100635 (1 μM)
  Emax (% inhib of Fsk), ± SEM: 55.7 ± 5.78 % inhib of Fsk
  pEC50 ± SEM: 9.65 ± 0.14
3HA-hCB1; + pFPP (31.6 μM)
  Emax (% inhib of Fsk), ± SEM: 57.9 ± 2.33 % inhib of Fsk
  pEC50 ± SEM: 9.70 ± 0.16
3HA-hCB1; drug alone
  Emax (% inhib of Fsk), ± SEM: 60.8 ± 1.7 % inhib of Fsk
3HA-hCB1; [5]
  pEC50 ± SEM: 9.56 ± 0.09

## CCCCCc1cc(O)c2c(c1)OC(C)(C)[C@@H]1CCC(C)=C[C@@H]21 [THC, Δ^9-tetrahydrocannabinol]
C57BL/6 mice
  Effect on response rates compared to vehicle: neither cannabinoid (alone or in combination with pFPP) significantly affected response rates
C57BL/6 mice; female mice, i.p., trained to discriminate 5.6 mg/kg THC from vehicle
  THC ED50 (95% confidence limits), Alone: 1.46 mg/kg (0.62-3.40)

## Fc1ccc(N2CCNCC2)cc1 [pFPP, para-fluorophenylpiperazine]
5HT1a
  previously reported affinity (pKi): 6.52
C57BL/6 mice; 3 mg/kg pFPP by itself
  Cannabimimetic (THC-like discriminative stimulus) effects: did not produce cannabimimetic effects by itself
C57BL/6 mice; 3 mg/kg pFPP co-administered
  Effect on potency of THC-like discriminative stimulus effects of THC or AMB-FUBINACA: nor did it alter the potency
C57BL/6 mice; 10 mg/kg pFPP alone, probe tests, data not shown
  Effect on response rates: substantial decreases in response rates
[2]
  Effect on AMB-FUBINACA metabolism: not altered by any concentration of pFPP
Long Evans rats; 10 mg/kg pFPP alone, i.p.
  Effect on heart rate in comparison to vehicle: only early and transient decreases
  Effect on respiratory minute volume across the post-injection session: significant decrease
  Effect on temperature in comparison to vehicle: only early and transient decreases
Long Evans rats; 10 mg/kg pFPP with 0.3 or 1 mg/kg AMB-FUBINACA
  Effect of co-administration on duration of AMB-FUBINACA heart rate decreases: shortened the duration
myc-h5HT1a and 3HA-hCB1 [1]; [5]
  pEC50 ± SEM: ~5.20 ± 0.18^$
myc-h5HT1a and 3HA-hCB1 [3]
  Antagonism of cAMP inhibition by 8OH-DPAT: not observed to have any antagonist effect
[4]
  Effect on AMB-FUBINACA metabolism: not altered by any concentration of pFPP
myc-h5HT1a
  Antagonism of cAMP inhibition by 8OH-DPAT: not observed to have any antagonist effect
3HA-hCB1
  cAMP response in the cell line expressing only CB1: no pFPP response was observed
